Test results published in US11040959B2, “Diprovocims: a new and potent class of TLR agonists” (The Scripps Research Institute, priority 2016, dated 2021).
Where two headings read alike, the source gives them in different places.

Legend:
Format in all cases: cell-based
[1] = system: TNF-α release stimulated by diprovocim-1 (3); assay: antagonist test: inhibition of the activity of diprovocim-1 (3) on co-administration; conditions: co-administered at 5 μM
[2] = system: differentiated human THP-1 cells; assay: stimulated release of TNF-α from differentiated human THP-1 cells (ELISA, dose-response)
How it was run: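 Human THP-1 cells were PMA-differentiated toward macrophages, and stimulated TNF-α release was measured by ELISA. EC50 values were taken from dose-response curves.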

[3] = system: mouse macrophages; assay: stimulated release of TNF-α from mouse macrophages; conditions: Macrophage
How it was run: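 EC50 derived from dose-response curves for stimulated TNF-α release from mouse macrophages.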

[4] = Homo sapiens, THP-1, table of functionalized derivatives 147-151, human THP-1 cells, read-out: EC50 (nM) (THP-1)
[5] = table of functionalized derivatives 147-151, mouse macrophages, read-out: EC50 (nM) (mouse)

| EC50 [2, 4] [nM] | EC50 [3, 5] [nM] | Compound | also measured |
| --- | --- | --- | --- |
| – | – | O=C(NCCc1ccccc1)[C@@H]1CN(C(=O)c2ccc(C(=O)N3C[C@@H](C(=O)NCCc4ccccc4)[C@H](C(=O)NCCc4ccccc4)C3)cc2)C[C@H]1C(=O)NCCc1ccccc1 [Compound 8, trans,trans-1,1′-Terephthaloylbis-(N^3, N^4-diphenethylpyrrolidine-3,4-dicarboxamide)] | antagonist activity, inhibiting the activity of diprovocim-1 (3) [1]: incapable of acting as an antagonist; EC50 ([2]; Homo sapiens, THP-1, running text, read-out: EC50, stimulated release of TNF-α from differentiated human THP-1 cells): > 5000 nM; activity in stimulating TNF-α release from human THP-1 cells (in words) ([2]; tested up to 5 μM where stated): inactive; EC50 ([3]; Mus musculus, read-out: EC50, stimulated release of TNF-α from mouse macrophages): > 5000 nM |
| 40 | 260 | CC(C)(C)OC(=O)COc1cc(C(=O)N2C[C@@H](C(=O)N[C@H]3C[C@@H]3c3ccccc3)[C@H](C(=O)N[C@H]3C[C@@H]3c3ccccc3)C2)ccc1C(=O)N1C[C@@H](C(=O)N[C@H]2CC2c2ccccc2)[C@H](C(=O)N[C@H]2C[C@@H]2c2ccccc2)C1 (stereo partly drawn) [Compound 147, tert-Butyl 2-(2,5-Bis((3S,4S)-3,4-bis(((1S,2R)-2-phenylcyclopropyl)carbamoyl)-pyrrolidine-1-carbonyl)phenoxy)acetate] | – |
| 190 | > 5000 | CC(C)(C)OC(=O)CCOCCOCCOCCOc1cc(C(=O)N2C[C@@H](C(=O)N[C@H]3C[C@@H]3c3ccccc3)[C@H](C(=O)N[C@H]3C[C@@H]3c3ccccc3)C2)ccc1C(=O)N1C[C@@H](C(=O)N[C@H]2C[C@@H]2c2ccccc2)[C@H](C(=O)N[C@H]2C[C@@H]2c2ccccc2)C1 [Compound 148, tert-Butyl 3-(2-(2-(2-(2,5-Bis((3S,4S)-3,4-bis(((1S,2R)-2-phenyl-cyclopropyl)carbamoyl)-pyrrolidine-1-carbonyl)-phenoxy)ethoxy)ethoxy)-ethoxy)propanoate] | – |
| 20 | 150 | CC(C)(C)OC(=O)CCOCCOCCOCCNC(=O)COc1cc(C(=O)N2C[C@@H](C(=O)N[C@H]3C[C@@H]3c3ccccc3)[C@H](C(=O)N[C@H]3C[C@@H]3c3ccccc3)C2)ccc1C(=O)N1C[C@@H](C(=O)N[C@H]2C[C@@H]2c2ccccc2)[C@H](C(=O)N[C@H]2C[C@@H]2c2ccccc2)C1 [Compound 149, tert-Butyl 1-(2,5-Bis((3S,4S)-3,4-bis(((1S,2R)-2-phenylcyclopropyl)carbamoyl)pyrrolidine-1-carbonyl)phenoxy)-2-oxo-6,9,12-trioxa-3-azapentadecan-15-oate] | – |
| 15 | 130 | CC(C)(C)OC(=O)COCCOCCOCC(=O)Nc1cc(C(=O)N2C[C@@H](C(=O)N[C@H]3C[C@@H]3c3ccccc3)[C@H](C(=O)N[C@H]3C[C@@H]3c3ccccc3)C2)ccc1C(=O)N1C[C@@H](C(=O)N[C@H]2C[C@@H]2c2ccccc2)[C@H](C(=O)N[C@H]2C[C@@H]2c2ccccc2)C1 [Compound 150, tert-Butyl 2-(2-(2-(2-((2,5-Bis((3S,4S)-3,4-bis(((1S,2R)-2-phenylcyclopropyl)carbamoyl)-pyrrolidine-1-carbonyl)phenyl)amino)-2-oxoethoxy)ethoxy)ethoxy)acetate] | – |

| Compound | EC50 [2, 4] [nM] | EC50 [3, 5] [nM] | also measured |
| --- | --- | --- | --- |
| O=C(COc1cc(C(=O)N2C[C@@H](C(=O)N[C@H]3C[C@@H]3c3ccccc3)[C@H](C(=O)N[C@H]3C[C@@H]3c3ccccc3)C2)ccc1C(=O)N1C[C@@H](C(=O)N[C@H]2C[C@@H]2c2ccccc2)[C@H](C(=O)N[C@H]2C[C@@H]2c2ccccc2)C1)NCC(=O)N[C@@H](CO)C(=O)O [Compound 151, (2-(2,5-Bis((3S,4S)-3,4-bis(((1S,2R)-2-phenylcyclopropyl)carbamoyl)pyrrolidine-1-carbonyl)phenoxy)acetyl)glycyl-L-serine] | – | 270 | EC50 ([2]; table of functionalized derivatives 147-151, human THP-1 cells, read-out: EC50 (nM) (THP-1)): 0.24 nM |
